# Source: patent US20240165123A1, “USE OF A COMPOUND CONTAINING A TRICYCLIC HETEROARYL GROUP” (CSPC Zhongqi Pharmaceutical Technology (Shijiazhuang) Co., …, priority 2021, published 2024)
# Like-named read-outs stand apart in the source and are kept apart here.
# Experiments:
# [1] = system: MRL/lpr lupus erythematosus model mice; type: in vivo; set-up: key to Kidney IHC (IgG) pathological score, bilateral kidneys: product score; 0 negative, 1-3 low, 4-8 medium, 9-12 high; conditions: for Area under the urine protein curve: 16 weeks; for Kidney HE pathological score of both kidneys, Activity index / Kidney HE pathological score of both kidneys, Chronicity index / Kidney HE pathological score of both kidneys, Tubulointerstitial lesions / Kidney IHC (IgG) pathological score, bilateral kidneys / Skin HE pathological score / Total kidney weight / Total kidney weight/body weight %: after 17 weeks of treatment; for IL-6 concentration in serum (ELISA) / Spleen weight / Spleen weight/body weight % / TNF-alpha concentration in serum (ELISA) / Total lymph node weight / Total lymph node weight/body weight %: end of the test
# Method: • female MRL/lpr mice aged 4 weeks, number: 50; • female C57BL/6 mice aged 4 weeks, number: 10.
# According to the concentration of the serum anti-ds-DNA antibody, female MRL/lpr mice were randomly divided into five groups: model group: solvent (aqueous solution containing 0.4% Tween 80 and 0.5% methylcellulose) 10 mL/kg BID, positive control group: prednisone 6 mg/kg QD, compound (I) 20, 40 and 60 mg/kg BID groups, the administration volumes respectively: 10 mL/kg. In addition, female C57BL/6 mice served as the normal control group. The animals in the Compound (I) group and the model group were administrated with the medicament or the solvent by gavage twice a day starting from the beginning of five weeks of age with an interval of 8 hours between two administrations; prednisone was administered to the animals by gavage once a day from the beginning of five weeks of age; the administration was totally performed for 17 weeks.
# Two mice in the model group died at 15 and 16 weeks of administration, respectively, and 8 mice remained at the end of the test; one mouse in the compound (I) 20 mg/kg bid group died in the later period of the 16th week of administration, and 9 mice remained at the end of the test; and no death of mice occurred in other groups.
# The skin destructions on the face, ears and back of mice were observed and scored once a week for 17 times totally.
# Scoring system: 1) red swelling and bleeding of the skin; 2) the extent of hair loss and skin dryness; 3) edema; 4) excoriation/corrosion; 5) lichenoid sclerotic plaque and other symptoms. The score of each item was as follows: normal=0 points; slight=1 point; moderate=2 points; severe=3 points. The severity of skin destruction was determined according to the total score of each evaluated symptom. […]
# The lymph nodes of MRL/lpr mice were scored once a week for a total of 17 times during the test.
# According to the lymph node diameter (cm), the score values were 0-6 points: • 0 point: normal; • 1 point: small (the diameter at one location of points on both sides was less than 1 cm); • 2 points: small (the diameters at two location of points on both sides were less than 1 cm); • 3 points: small (the diameters at three location of points on both sides were less than 1 cm); • 4 points: large (the diameter at one location of points on both sides was larger than 1 cm, the diameters at the other two location of points on both sides were less than 1 cm); • 5 points: large (the diameters at two location of points on both sides were larger than 1 cm, and the diameter at the other location of points on both sides was less than 1 cm); • 6 points: large (the diameters at three location of points on both sides were greater than 1 cm). […]
# Kidney HE scoring criteria: […]
# During the test, the concentration of serum anti-ds-DNA antibody of mice were detected every 4 weeks for 16 weeks.
# At the end of the test, the serum cytokine levels of mice were detected by ELISA. […] See Table 25 and FIG. 17 for details.
# [2] = Rat effective dose for safety window calculation; type: in vivo
structure (smiles),measurement,setting,value
"NC(=O)c1cnc(Nc2ccc3c(c2)OC[C@H]2CN(S(=O)(=O)C4CC4)CCN32)nc1NC1CC1 [Compound (I), (R)-4-(cyclopropylamino)-2-((3-(cyclopropylsulfonyl)-1,2,3,4,4a,5-hexahydrobenzo[b]pyrazolo[1,2-d][1,4]oxazin-8-yl)amino)pyrimidine-5-arboxamide]",Area under the urine protein curve,[1]; 20 mg/kg BID,5646.42 ± 587.29 wk*mg/L
same,"Kidney HE pathological score of both kidneys, Activity index",[1]; 20 mg/kg BID,5.20 ± 0.73
same,"Kidney HE pathological score of both kidneys, Chronicity index",[1]; 20 mg/kg BID,7.00 ± 0.54
same,"Kidney HE pathological score of both kidneys, Tubulointerstitial lesions",[1]; 20 mg/kg BID,13.50 ± 0.52
same,"Kidney IHC (IgG) pathological score, bilateral kidneys",[1]; 20 mg/kg BID,8.90 ± 0.72
same,Skin HE pathological score,[1]; 20 mg/kg BID,3.56 ± 0.44
same,Total kidney weight,[1]; 20 mg/kg BID,0.4146 ± 0.02 g
same,Total kidney weight/body weight %,[1]; 20 mg/kg BID,1.1855 ± 0.05%
same,IL-6 concentration in serum (ELISA),[1]; 20 mg/kg BID,52.38 ± 5.29 pg/mL
same,Spleen weight,[1]; 20 mg/kg BID,0.4658 ± 0.04 g
same,Spleen weight/body weight %,[1]; 20 mg/kg BID,1.3336 ± 0.11 %
same,TNF-alpha concentration in serum (ELISA),[1]; 20 mg/kg BID,48.03 ± 4.12 pg/mL
same,Total lymph node weight,[1]; 20 mg/kg BID,1.6823 ± 0.24 g
same,Total lymph node weight/body weight %,[1]; 20 mg/kg BID,4.7396 ± 0.60%
same,Lymph node score,"[1]; 20 mg/kg BID, week 0",0.0 ± 0.00
same,Skin score (skin destruction),"[1]; 20 mg/kg BID, week 0",0.0 ± 0.00
same,Skin score (skin destruction),"[1]; 20 mg/kg BID, week 4",0.0 ± 0.00
same,Lymph node score,"[1]; 20 mg/kg BID, week 6",0.0 ± 0.00
same,Lymph node score,"[1]; 20 mg/kg BID, week 7",0.6 ± 0.22
same,Skin score (skin destruction),"[1]; 20 mg/kg BID, week 8",0.0 ± 0.00
same,Lymph node score,"[1]; 20 mg/kg BID, week 9",2.0 ± 0.26
same,Lymph node score,"[1]; 20 mg/kg BID, week 11",2.8 ± 0.29
same,Lymph node score,"[1]; 20 mg/kg BID, week 12",3.0 ± 0.21
same,Skin score (skin destruction),"[1]; 20 mg/kg BID, week 12",0.0 ± 0.00
same,Skin score (skin destruction),"[1]; 20 mg/kg BID, week 14",0.2 ± 0.20
same,Skin score (skin destruction),"[1]; 20 mg/kg BID, week 16",0.2 ± 0.13
same,Lymph node score,"[1]; 20 mg/kg BID, week 17",3.6 ± 0.24
same,Skin score (skin destruction),"[1]; 20 mg/kg BID, week 17",0.2 ± 0.15
same,Area under the urine protein curve,[1]; 40 mg/kg BID,3851.50 ± 340.32 wk*mg/L
same,"Kidney HE pathological score of both kidneys, Activity index",[1]; 40 mg/kg BID,4.00 ± 0.42
same,"Kidney HE pathological score of both kidneys, Chronicity index",[1]; 40 mg/kg BID,7.60 ± 0.50
same,"Kidney HE pathological score of both kidneys, Tubulointerstitial lesions",[1]; 40 mg/kg BID,12.30 ± 1.03
same,"Kidney IHC (IgG) pathological score, bilateral kidneys",[1]; 40 mg/kg BID,7.40 ± 0.56
same,Skin HE pathological score,[1]; 40 mg/kg BID,3.60 ± 0.37
same,Total kidney weight,[1]; 40 mg/kg BID,0.3704 ± 0.01 g
same,Total kidney weight/body weight %,[1]; 40 mg/kg BID,1.0997 ± 0.05%
same,IL-6 concentration in serum (ELISA),[1]; 40 mg/kg BID,63.17 ± 12.60 pg/mL
same,Spleen weight,[1]; 40 mg/kg BID,0.3184 ± 0.03 g
same,Spleen weight/body weight %,[1]; 40 mg/kg BID,0.9485 ± 0.09 %
same,TNF-alpha concentration in serum (ELISA),[1]; 40 mg/kg BID,32.29 ± 4.62 pg/mL
same,Total lymph node weight,[1]; 40 mg/kg BID,0.7319 ± 0.12 g
same,Total lymph node weight/body weight %,[1]; 40 mg/kg BID,2.1603 ± 0.35 %
same,Concentration of serum anti-ds-DNA antibody,"[1]; 40 mg/kg BID, week 0",3.32 ± 0.39 µg/mL
same,Lymph node score,"[1]; 40 mg/kg BID, week 0",0.0 ± 0.00
same,Skin score (skin destruction),"[1]; 40 mg/kg BID, week 0",0.0 ± 0.00
same,Concentration of serum anti-ds-DNA antibody,"[1]; 40 mg/kg BID, week 4",346.06 ± 35.04 µg/mL
same,Skin score (skin destruction),"[1]; 40 mg/kg BID, week 4",0.0 ± 0.00
same,Lymph node score,"[1]; 40 mg/kg BID, week 6",0.0 ± 0.00
same,Lymph node score,"[1]; 40 mg/kg BID, week 7",0.3 ± 0.15
same,Concentration of serum anti-ds-DNA antibody,"[1]; 40 mg/kg BID, week 8",885.04 ± 96.38 µg/mL
same,Skin score (skin destruction),"[1]; 40 mg/kg BID, week 8",0.0 ± 0.00
same,Lymph node score,"[1]; 40 mg/kg BID, week 9",0.7 ± 0.26
same,Lymph node score,"[1]; 40 mg/kg BID, week 11",0.9 ± 0.23
same,Concentration of serum anti-ds-DNA antibody,"[1]; 40 mg/kg BID, week 12",1390.83 ± 266.11 µg/mL
same,Lymph node score,"[1]; 40 mg/kg BID, week 12",1.2 ± 0.25
same,Skin score (skin destruction),"[1]; 40 mg/kg BID, week 12",0.0 ± 0.00
same,Skin score (skin destruction),"[1]; 40 mg/kg BID, week 14",0.0 ± 0.00
same,Concentration of serum anti-ds-DNA antibody,"[1]; 40 mg/kg BID, week 16",1198.59 ± 86.64 µg/mL
same,Skin score (skin destruction),"[1]; 40 mg/kg BID, week 16",0.0 ± 0.00
same,Lymph node score,"[1]; 40 mg/kg BID, week 17",1.5 ± 0.34
same,Skin score (skin destruction),"[1]; 40 mg/kg BID, week 17",0.0 ± 0.00
same,Area under the urine protein curve,[1]; 60 mg/kg BID,4138.70 ± 1048.57 wk*mg/L
same,"Kidney HE pathological score of both kidneys, Activity index",[1]; 60 mg/kg BID,3.90 ± 0.75
same,"Kidney HE pathological score of both kidneys, Chronicity index",[1]; 60 mg/kg BID,6.00 ± 0.75
same,"Kidney HE pathological score of both kidneys, Tubulointerstitial lesions",[1]; 60 mg/kg BID,8.50 ± 0.91
same,"Kidney IHC (IgG) pathological score, bilateral kidneys",[1]; 60 mg/kg BID,6.90 ± 0.28
same,Skin HE pathological score,[1]; 60 mg/kg BID,2.60 ± 0.37
same,Total kidney weight,[1]; 60 mg/kg BID,0.3639 ± 0.02 g
same,Total kidney weight/body weight %,[1]; 60 mg/kg BID,1.1424 ± 0.07%
same,IL-6 concentration in serum (ELISA),[1]; 60 mg/kg BID,35.99 ± 7.36 pg/mL
same,Spleen weight,[1]; 60 mg/kg BID,0.2805 ± 0.03 g
same,Spleen weight/body weight %,[1]; 60 mg/kg BID,0.8892 ± 0.10 %
same,TNF-alpha concentration in serum (ELISA),[1]; 60 mg/kg BID,30.61 ± 4.72 pg/mL
same,Total lymph node weight,[1]; 60 mg/kg BID,0.5680 ± 0.08 g
same,Total lymph node weight/body weight %,[1]; 60 mg/kg BID,1.7879 ± 0.26 %
same,Concentration of serum anti-ds-DNA antibody,"[1]; 60 mg/kg BID, week 0",3.33 ± 0.42 µg/mL
same,Lymph node score,"[1]; 60 mg/kg BID, week 0",0.0 ± 0.00
same,Skin score (skin destruction),"[1]; 60 mg/kg BID, week 0",0.0 ± 0.00
same,Concentration of serum anti-ds-DNA antibody,"[1]; 60 mg/kg BID, week 4",249.26 ± 24.12 µg/mL
same,Skin score (skin destruction),"[1]; 60 mg/kg BID, week 4",0.0 ± 0.00
same,Lymph node score,"[1]; 60 mg/kg BID, week 6",0.0 ± 0.00
same,Lymph node score,"[1]; 60 mg/kg BID, week 7",0.1 ± 0.10
same,Concentration of serum anti-ds-DNA antibody,"[1]; 60 mg/kg BID, week 8",806.75 ± 110.22 µg/mL
same,Skin score (skin destruction),"[1]; 60 mg/kg BID, week 8",0.0 ± 0.00
same,Lymph node score,"[1]; 60 mg/kg BID, week 9",0.3 ± 0.15
same,Lymph node score,"[1]; 60 mg/kg BID, week 11",0.4 ± 0.16
same,Concentration of serum anti-ds-DNA antibody,"[1]; 60 mg/kg BID, week 12",1168.19 ± 113.75 µg/mL
same,Lymph node score,"[1]; 60 mg/kg BID, week 12",0.5 ± 0.22
same,Skin score (skin destruction),"[1]; 60 mg/kg BID, week 12",0.0 ± 0.00
same,Skin score (skin destruction),"[1]; 60 mg/kg BID, week 14",0.0 ± 0.00
same,Concentration of serum anti-ds-DNA antibody,"[1]; 60 mg/kg BID, week 16",1272.27 ± 50.19 µg/mL
same,Skin score (skin destruction),"[1]; 60 mg/kg BID, week 16",0.0 ± 0.00
same,Lymph node score,"[1]; 60 mg/kg BID, week 17",1.0 ± 0.26
same,Skin score (skin destruction),"[1]; 60 mg/kg BID, week 17",0.0 ± 0.00
same,Mice died during the test,"[1]; mouse, in vivo",one
same,AUC,"[2]; in vivo, rat effective dose 3 mg/kg/time BID",4310 ng·h/mL
same,"Safety window, dose method",[2]; rat effective dose (reference),1 fold
same,Effective dose for rats,[2]; rats,3 mg/kg/time bid
